Results as given in the supplement of paper PMC8882468.

Tested on: HCI-016 (organoid from a triple-negative breast cancer xenograft)
Test: CTG-3D luminescence at 96 h relative to day-0 seeding control (ratio to day 0); higher = more growth / less cytotoxicity; PDxO 3D drug screen, 96 h, CTG-3D normalised to day-0 seeding control.
Details: 1 µM; days in culture: 153

| SMILES | CTG-3D luminescence at 96 h |
| --- | --- |
| C[C@H](NC(=O)CCC(F)(F)F)C(=O)N[C@@H]1C(=O)N(CCO)c2ncccc2-c2ccccc21 [crenigacestat] | 2.21 |
| COc1cccc2c1C(=O)c1c(O)c3c(c(O)c1C2=O)C[C@@](O)(C(=O)CO)C[C@@H]3O[C@H]1C[C@H](N)[C@H](O)[C@H](C)O1 [doxorubicin] | 0.19 |
| C[C@]12CC[C@@H]3c4ccc(O)cc4C[C@@H](CCCCCCCCC[S+]([O-])CCCC(F)(F)C(F)(F)F)[C@H]3[C@@H]1CC[C@@H]2O (stereo partly specified) [fulvestrant] | 2.08 |
| Nc1ccn([C@@H]2O[C@H](CO)[C@@H](O)C2(F)F)c(=O)n1 [gemcitabine] | 0.509 |
| C=CC(=O)N1CCC[C@@H](n2nc(-c3ccc(Oc4ccccc4)cc3)c3c(N)ncnc32)C1 [ibrutinib] | 2.69 |
| CN(Cc1cnc2nc(N)nc(N)c2n1)c1ccc(C(=O)N[C@@H](CCC(=O)O)C(=O)O)cc1 [methotrexate] | 1.9 |
| CC1(C)CCC(c2ccc(Cl)cc2)=C(CN2CCN(c3ccc(C(=O)NS(=O)(=O)c4ccc(N[C@H](CCN5CCOCC5)CSc5ccccc5)c(S(=O)(=O)C(F)(F)F)c4)cc3)CC2)C1 [navitoclax] | 1.76 |
| NC(=O)c1cccc2cn(-c3ccc([C@@H]4CCCNC4)cc3)nc12 [niraparib] | 0.989 |

Same assay, conditions: 1 µM; days in culture: 172

| SMILES | CTG-3D luminescence at 96 h |
| --- | --- |
| C[C@H](NC(=O)CCC(F)(F)F)C(=O)N[C@@H]1C(=O)N(CCO)c2ncccc2-c2ccccc21 [crenigacestat] | 1.58 |
| COc1cccc2c1C(=O)c1c(O)c3c(c(O)c1C2=O)C[C@@](O)(C(=O)CO)C[C@@H]3O[C@H]1C[C@H](N)[C@H](O)[C@H](C)O1 [doxorubicin] | 0.194 |
| C[C@]12CC[C@@H]3c4ccc(O)cc4C[C@@H](CCCCCCCCC[S+]([O-])CCCC(F)(F)C(F)(F)F)[C@H]3[C@@H]1CC[C@@H]2O (stereo partly specified) [fulvestrant] | 1.72 |
| Nc1ccn([C@@H]2O[C@H](CO)[C@@H](O)C2(F)F)c(=O)n1 [gemcitabine] | 0.257 |
| C=CC(=O)N1CCC[C@@H](n2nc(-c3ccc(Oc4ccccc4)cc3)c3c(N)ncnc32)C1 [ibrutinib] | 1.46 |
| CN(Cc1cnc2nc(N)nc(N)c2n1)c1ccc(C(=O)N[C@@H](CCC(=O)O)C(=O)O)cc1 [methotrexate] | 1.49 |
| CC1(C)CCC(c2ccc(Cl)cc2)=C(CN2CCN(c3ccc(C(=O)NS(=O)(=O)c4ccc(N[C@H](CCN5CCOCC5)CSc5ccccc5)c(S(=O)(=O)C(F)(F)F)c4)cc3)CC2)C1 [navitoclax] | 1.55 |
| NC(=O)c1cccc2cn(-c3ccc([C@@H]4CCCNC4)cc3)nc12 [niraparib] | 1.36 |

Same assay, conditions: 1 µM; days in culture: 190

| SMILES | CTG-3D luminescence at 96 h |
| --- | --- |
| C[C@H](NC(=O)CCC(F)(F)F)C(=O)N[C@@H]1C(=O)N(CCO)c2ncccc2-c2ccccc21 [crenigacestat] | 0.838 |
| COc1cccc2c1C(=O)c1c(O)c3c(c(O)c1C2=O)C[C@@](O)(C(=O)CO)C[C@@H]3O[C@H]1C[C@H](N)[C@H](O)[C@H](C)O1 [doxorubicin] | 0.316 |
| C[C@]12CC[C@@H]3c4ccc(O)cc4C[C@@H](CCCCCCCCC[S+]([O-])CCCC(F)(F)C(F)(F)F)[C@H]3[C@@H]1CC[C@@H]2O (stereo partly specified) [fulvestrant] | 1.3 |
| Nc1ccn([C@@H]2O[C@H](CO)[C@@H](O)C2(F)F)c(=O)n1 [gemcitabine] | 0.268 |
| C=CC(=O)N1CCC[C@@H](n2nc(-c3ccc(Oc4ccccc4)cc3)c3c(N)ncnc32)C1 [ibrutinib] | 0.915 |
| CN(Cc1cnc2nc(N)nc(N)c2n1)c1ccc(C(=O)N[C@@H](CCC(=O)O)C(=O)O)cc1 [methotrexate] | 1.08 |
| CC1(C)CCC(c2ccc(Cl)cc2)=C(CN2CCN(c3ccc(C(=O)NS(=O)(=O)c4ccc(N[C@H](CCN5CCOCC5)CSc5ccccc5)c(S(=O)(=O)C(F)(F)F)c4)cc3)CC2)C1 [navitoclax] | 1.46 |
| NC(=O)c1cccc2cn(-c3ccc([C@@H]4CCCNC4)cc3)nc12 [niraparib] | 0.974 |

Same assay, conditions: 1 µM; days in culture: 199

| SMILES | CTG-3D luminescence at 96 h |
| --- | --- |
| C[C@H](NC(=O)CCC(F)(F)F)C(=O)N[C@@H]1C(=O)N(CCO)c2ncccc2-c2ccccc21 [crenigacestat] | 1.78 |
| COc1cccc2c1C(=O)c1c(O)c3c(c(O)c1C2=O)C[C@@](O)(C(=O)CO)C[C@@H]3O[C@H]1C[C@H](N)[C@H](O)[C@H](C)O1 [doxorubicin] | 0.159 |
| C[C@]12CC[C@@H]3c4ccc(O)cc4C[C@@H](CCCCCCCCC[S+]([O-])CCCC(F)(F)C(F)(F)F)[C@H]3[C@@H]1CC[C@@H]2O (stereo partly specified) [fulvestrant] | 2.19 |
| Nc1ccn([C@@H]2O[C@H](CO)[C@@H](O)C2(F)F)c(=O)n1 [gemcitabine] | 0.16 |
| C=CC(=O)N1CCC[C@@H](n2nc(-c3ccc(Oc4ccccc4)cc3)c3c(N)ncnc32)C1 [ibrutinib] | 1.35 |
| CN(Cc1cnc2nc(N)nc(N)c2n1)c1ccc(C(=O)N[C@@H](CCC(=O)O)C(=O)O)cc1 [methotrexate] | 1.53 |
| CC1(C)CCC(c2ccc(Cl)cc2)=C(CN2CCN(c3ccc(C(=O)NS(=O)(=O)c4ccc(N[C@H](CCN5CCOCC5)CSc5ccccc5)c(S(=O)(=O)C(F)(F)F)c4)cc3)CC2)C1 [navitoclax] | 2.1 |
| NC(=O)c1cccc2cn(-c3ccc([C@@H]4CCCNC4)cc3)nc12 [niraparib] | 0.655 |

Same assay, conditions: 10 µM; days in culture: 153

| SMILES | CTG-3D luminescence at 96 h |
| --- | --- |
| C[C@H](NC(=O)CCC(F)(F)F)C(=O)N[C@@H]1C(=O)N(CCO)c2ncccc2-c2ccccc21 [crenigacestat] | 2.33 |
| COc1cccc2c1C(=O)c1c(O)c3c(c(O)c1C2=O)C[C@@](O)(C(=O)CO)C[C@@H]3O[C@H]1C[C@H](N)[C@H](O)[C@H](C)O1 [doxorubicin] | 0.0767 |
| C[C@]12CC[C@@H]3c4ccc(O)cc4C[C@@H](CCCCCCCCC[S+]([O-])CCCC(F)(F)C(F)(F)F)[C@H]3[C@@H]1CC[C@@H]2O (stereo partly specified) [fulvestrant] | 2.62 |
| Nc1ccn([C@@H]2O[C@H](CO)[C@@H](O)C2(F)F)c(=O)n1 [gemcitabine] | 0.286 |
| C=CC(=O)N1CCC[C@@H](n2nc(-c3ccc(Oc4ccccc4)cc3)c3c(N)ncnc32)C1 [ibrutinib] | 1.59 |
| CN(Cc1cnc2nc(N)nc(N)c2n1)c1ccc(C(=O)N[C@@H](CCC(=O)O)C(=O)O)cc1 [methotrexate] | 2.08 |
| CC1(C)CCC(c2ccc(Cl)cc2)=C(CN2CCN(c3ccc(C(=O)NS(=O)(=O)c4ccc(N[C@H](CCN5CCOCC5)CSc5ccccc5)c(S(=O)(=O)C(F)(F)F)c4)cc3)CC2)C1 [navitoclax] | 0.105 |
| NC(=O)c1cccc2cn(-c3ccc([C@@H]4CCCNC4)cc3)nc12 [niraparib] | 0.444 |

Same assay, conditions: 10 µM; days in culture: 172

| SMILES | CTG-3D luminescence at 96 h |
| --- | --- |
| C[C@H](NC(=O)CCC(F)(F)F)C(=O)N[C@@H]1C(=O)N(CCO)c2ncccc2-c2ccccc21 [crenigacestat] | 1.14 |
| COc1cccc2c1C(=O)c1c(O)c3c(c(O)c1C2=O)C[C@@](O)(C(=O)CO)C[C@@H]3O[C@H]1C[C@H](N)[C@H](O)[C@H](C)O1 [doxorubicin] | 0.0836 |
| C[C@]12CC[C@@H]3c4ccc(O)cc4C[C@@H](CCCCCCCCC[S+]([O-])CCCC(F)(F)C(F)(F)F)[C@H]3[C@@H]1CC[C@@H]2O (stereo partly specified) [fulvestrant] | 1.14 |
| Nc1ccn([C@@H]2O[C@H](CO)[C@@H](O)C2(F)F)c(=O)n1 [gemcitabine] | 0.0907 |
| C=CC(=O)N1CCC[C@@H](n2nc(-c3ccc(Oc4ccccc4)cc3)c3c(N)ncnc32)C1 [ibrutinib] | 1.04 |
| CN(Cc1cnc2nc(N)nc(N)c2n1)c1ccc(C(=O)N[C@@H](CCC(=O)O)C(=O)O)cc1 [methotrexate] | 1.25 |
| CC1(C)CCC(c2ccc(Cl)cc2)=C(CN2CCN(c3ccc(C(=O)NS(=O)(=O)c4ccc(N[C@H](CCN5CCOCC5)CSc5ccccc5)c(S(=O)(=O)C(F)(F)F)c4)cc3)CC2)C1 [navitoclax] | 0.931 |
| NC(=O)c1cccc2cn(-c3ccc([C@@H]4CCCNC4)cc3)nc12 [niraparib] | 0.272 |

Same assay, conditions: 10 µM; days in culture: 190

| SMILES | CTG-3D luminescence at 96 h |
| --- | --- |
| C[C@H](NC(=O)CCC(F)(F)F)C(=O)N[C@@H]1C(=O)N(CCO)c2ncccc2-c2ccccc21 [crenigacestat] | 1.52 |
| COc1cccc2c1C(=O)c1c(O)c3c(c(O)c1C2=O)C[C@@](O)(C(=O)CO)C[C@@H]3O[C@H]1C[C@H](N)[C@H](O)[C@H](C)O1 [doxorubicin] | 0.118 |
| C[C@]12CC[C@@H]3c4ccc(O)cc4C[C@@H](CCCCCCCCC[S+]([O-])CCCC(F)(F)C(F)(F)F)[C@H]3[C@@H]1CC[C@@H]2O (stereo partly specified) [fulvestrant] | 0.96 |
| Nc1ccn([C@@H]2O[C@H](CO)[C@@H](O)C2(F)F)c(=O)n1 [gemcitabine] | 0.122 |
| C=CC(=O)N1CCC[C@@H](n2nc(-c3ccc(Oc4ccccc4)cc3)c3c(N)ncnc32)C1 [ibrutinib] | 0.881 |
| CN(Cc1cnc2nc(N)nc(N)c2n1)c1ccc(C(=O)N[C@@H](CCC(=O)O)C(=O)O)cc1 [methotrexate] | 1.21 |
| CC1(C)CCC(c2ccc(Cl)cc2)=C(CN2CCN(c3ccc(C(=O)NS(=O)(=O)c4ccc(N[C@H](CCN5CCOCC5)CSc5ccccc5)c(S(=O)(=O)C(F)(F)F)c4)cc3)CC2)C1 [navitoclax] | 1.1 |
| NC(=O)c1cccc2cn(-c3ccc([C@@H]4CCCNC4)cc3)nc12 [niraparib] | 0.189 |
